Laboratory results published in patent US20260273072A1, “NOVEL PLK1 DEGRADATION INDUCING COMPOUND” (UPPTHERA, INC., priority 2023, published 2026).

Experiments:
Format in all cases: cell-based
NCI-H526 cell line = experiment: Cell viability assay for NCI-H526 cell line (EZ-Cytox); settings: Homo sapiens, NCI-H526, 120 h; H526 cells, 5 days, 3000 nM to 0.46 nM
Experimental: (§1) 3. Cell Viability Assay for NCI-H69, NCI-H526 Cell Lines
(§2) (1) Culture of NCI-H69, NCI-H526 Cell Lines
(§3) The NCI-H69 (hereafter H69) and NCI-H526 (hereafter H526) cell lines were purchased from KCLB.
(§4) (2) Treatment of Compounds of the Present Invention and Method of Cell Viability Assay
(§5) After treating the compound to each well to make the total volume of 200 μl, it was cultured in a CO2 incubator (Thermo Fisher Scientific) for 5 days. […] The absorbance of the completely cultured sample was measured by setting the wavelength of a plate reader (BMG Labtech) to […], and was measured after shaking for 3 minutes in a plate reader before measurement.
(§6) The results of cell viability for H526 and H69 cell line are shown in Table 3 and Table 4, respectively.
(§7) In Table 3 and Table 4, Activity represents IC50 value of each Exemplary Compound treatment group to H526 and H69 cell line, respectively (A: <30 nM, B: <50 nM, C: <100 nM, D: <200 nM, E: <400 nM).

MRC-5 cell line = experiment: Cell viability assay for MRC-5 cell line (EZ-Cytox); settings: Homo sapiens, MRC5, 120 h; MRC-5 normal cell line, 5 days, 10000 nM to 1.52 nM; read-out: Activity: IC50 value, cell viability, MRC-5 cell line (Exemplary Compounds)
Experimental: 4. Cell Viability Assay for MRC-5 Cell Line
(1) Culture of MRC-5 Cell Line
The MRC-5 cell line was purchased from KCLB. Passage of cultured cells was maintained within P15.
(2) Treatment of Compounds of the Present Invention
Then, it was cultured in 37° C. CO2 incubator (Thermo Fisher Scientific) for 5 days.
(3) Cytotoxicity Experiment
CO2 incubator for 4 hours.

PLK1 = target: T1, PLK1 (Homo sapiens, UniProt P53350); experiment: Luciferase assay for PLK1 in HeLa LgBit (Plk1-HiBit KI) cell line; settings: 300 nM compound, luminescence after 9 hours
T1 construct: endogenous in cells; host or cells: HeLa LgBit (Plk1-HiBit KI): HeLa stably expressing LgBit, with a CRISPR/Cas9 knock-in of HiBit at the endogenous PLK1 locus
Experimental: 2. Luciferase Assay for PLK1
(1) Preparation and Culture of HeLa LgBit (Plk1-HiBit KI) Cell Line
A HeLa cell line in which the LgBit vector was transfected and expressed stably was prepared. Then, after constructing gRNA and donor to express the HiBit amino acid sequence behind the C-terminal of the PLK1 gene, which was inherent in the cell, it was inserted into the cell together with a vector capable of expressing CRISPR/Cas9. Only the cells in which the insertion was completed and knock-in had progressed were selected, sub-cultured and used.
For cell culture, DMEM (Gibco), FBS (Gibco), PS (Gibco), […] cell culture dish (SPL), […] cell culture dish (SPL), 96-well culture plate (SPL), PBS pH 7.4 (Gibco), TrypLE™ Express (Gibco), Cell counter (Thermo Fisher Scientific) and 0.4% Trypan Blue Solution (DYNEBIO) were used.
(2) Treatment of Compounds of the Present Invention and Method of Luciferase Assay
In the case of HeLa LgBit (Plk1-HiBit KI), the compounds were treated after being released after thymidine block, and the process was as follows. Thymidine (Sigma-Aldrich) was completely dissolved in ddH2O and used in the experiment. For thymidine block, the products were treated with 2 mM of thymidine and then incubated for 24 hours. For release and chemical treatment, the medium was suctioned and washed with 1×PBS. TrypLE™ (Gibco) was added and incubated in 37° C. CO2 incubator (Thermo Fisher Scientific) for 5 mins. Cells neutralized by adding complete media were counted through a counter. For each well of a 96-well culture plate (SPL), 3.3×10^4 cells and a total medium volume of 150 μl were seeded and incubated in a CO2 incubator.
Each cell line was incubated in a CO2 incubator for 18 hours, and Endurazine (Promega, Cat. No. N257B) was added to each well to make up 4% of the total volume. After adding compounds of Examples in a 96-well white plate (SPL) to a concentration of 300 nM, the wavelength of the plate reader (BMG Labtech, CLARIOstar Plus) was set to 470-480 nm, and then the luminescence was tracked in real time.
In Table 2, Activity represents the ratio of the luminescence value of each Exemplary Compound treatment group to DMSO treatment group (+++: <0.3, ++: <0.5, +: <0.7).

NCI-H69 cell line = experiment: Cell viability assay for NCI-H69 cell line (EZ-Cytox); settings: Homo sapiens, NCI-H69, 120 h; H69 cells, 5 days, 3000 nM to 0.46 nM
Experimental: as §1, §2, §3, §4, §5, §6, §7

T1 sequence (P53350 whole entry): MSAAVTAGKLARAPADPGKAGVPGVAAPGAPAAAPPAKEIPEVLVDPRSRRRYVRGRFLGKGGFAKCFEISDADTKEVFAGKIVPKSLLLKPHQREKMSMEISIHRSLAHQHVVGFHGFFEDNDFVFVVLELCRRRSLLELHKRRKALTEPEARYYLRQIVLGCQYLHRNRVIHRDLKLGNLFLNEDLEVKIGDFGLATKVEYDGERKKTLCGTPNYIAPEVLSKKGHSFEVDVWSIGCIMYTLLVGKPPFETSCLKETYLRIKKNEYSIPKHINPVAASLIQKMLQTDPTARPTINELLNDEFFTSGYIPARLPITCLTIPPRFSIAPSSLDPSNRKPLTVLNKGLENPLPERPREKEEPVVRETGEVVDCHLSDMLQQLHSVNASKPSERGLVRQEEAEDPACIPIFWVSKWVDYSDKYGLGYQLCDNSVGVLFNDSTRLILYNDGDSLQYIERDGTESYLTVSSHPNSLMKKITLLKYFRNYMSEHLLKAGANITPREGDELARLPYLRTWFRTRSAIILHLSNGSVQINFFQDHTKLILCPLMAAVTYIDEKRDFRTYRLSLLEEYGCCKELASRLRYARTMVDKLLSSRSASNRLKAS

Structure (SMILES) | Activity: ratio of the luminescence value of compound treatment group to DMSO treatment group (PLK1) | IC50 (NCI-H526 cell line) [nM] | IC50 (MRC-5 cell line) [nM] | IC50 (NCI-H69 cell line) [nM]
COc1cc(C(=O)N[C@H]2CC[C@H](CN(C)C3CCN(c4cnc(C5CCC(=O)NC5=O)cc4C)CC3)CC2)ccc1Nc1ncc2c(n1)N(C(C)C)CC(F)(F)C(=O)N2C (stereo partly shown) [Compound 16, 4-((7,7-difluoro-9-isopropyl-5-methyl-6-oxo-6,7,8,9-tetrahydro-5H-pyrimido[4,5-b][1,4]diazepin-2-yl)amino)-N-((1r,4r)-4-(((1-(6-(2,6-dioxopiperidin-3-yl)-4-methylpyridin-3-yl)piperidin-4-yl)(methyl)amino)methyl)cyclohexyl)-3-methoxybenzamide] | +++ (+++: <0.3) | < 30 | > 10000 | < 30
COc1cc(C(=O)NC2CC3(CCN(CC4CCN(c5cnc(C6CCC(=O)NC6=O)cc5C)CC4)CC3)C2)ccc1Nc1ncc2c(n1)N(C1CCCC1)CC(F)(F)C(=O)N2C (stereo not shown) [Compound 17, 4-((9-cyclopentyl-7,7-difluoro-5-methyl-6-oxo-6,7,8,9-tetrahydro-5H-pyrimido[4,5-b][1,4]diazepin-2-yl)amino)-N-(7-((1-(6-(2,6-dioxopiperidin-3-yl)-4-methylpyridin-3-yl)piperidin-4-yl)methyl)-7-azaspiro[3.5]nonan-2-yl)-3-methoxybenzamide] | +++ (+++: <0.3) | < 30 | > 10000 | < 30
COc1cc(C(=O)NC2CC3(CCN(CC4CCN(c5ccc(C6CCC(=O)NC6=O)nc5C)CC4)CC3)C2)ccc1Nc1ncc2c(n1)N(C1CCCC1)CC(F)(F)C(=O)N2C (stereo not shown) [Compound 18, 4-((9-cyclopentyl-7,7-difluoro-5-methyl-6-oxo-6,7,8,9-tetrahydro-5H-pyrimido[4,5-b][1,4]diazepin-2-yl)amino)-N-(7-((1-(6-(2,6-dioxopiperidin-3-yl)-2-methylpyridin-3-yl)piperidin-4-yl)methyl)-7-azaspiro[3.5]nonan-2-yl)-3-methoxybenzamide] | ++ (++: <0.5) | < 30 | > 10000 | < 30
COc1cc(C(=O)NC2CC3(CCN(CC4CCN(c5cnc(C6CCC(=O)NC6=O)cc5C)CC4)CC3)C2)ccc1Nc1ncc2c(n1)N(C(C)C)CC(F)(F)C(=O)N2C (stereo not shown) [Compound 19, 4-((7,7-difluoro-9-isopropyl-5-methyl-6-oxo-6,7,8,9-tetrahydro-5H-pyrimido[4,5-b][1,4]diazepin-2-yl)amino)-N-(7-((1-(6-(2,6-dioxopiperidin-3-yl)-4-methylpyridin-3-yl)piperidin-4-yl)methyl)-7-azaspiro[3.5]nonan-2-yl)-3-methoxybenzamide] | ++ (++: <0.5) | < 30 | > 10000 | < 30

Now from value to molecule, other results behind:

Activity: ratio of the luminescence value of compound treatment group to DMSO treatment group (PLK1) | Structure (SMILES) | IC50 (NCI-H526 cell line) [nM] | IC50 (MRC-5 cell line) [nM] | IC50 (NCI-H69 cell line) [nM]
+++ (+++: <0.3) | COc1cc(C(=O)NC2CCC(N(C)CC3CCN(c4cnc(C5CCC(=O)NC5=O)cc4F)CC3)CC2)ccc1Nc1ncc2c(n1)N(C1CCCC1)CC(F)(F)C(=O)N2C (stereo not shown) [Compound 20, 4-((9-cyclopentyl-7,7-difluoro-5-methyl-6-oxo-6,7,8,9-tetrahydro-5H-pyrimido[4,5-b][1,4]diazepin-2-yl)amino)-N-((1r,4r)-4-(((1-(6-(2,6-dioxopiperidin-3-yl)-4-fluoropyridin-3-yl)piperidin-4-yl)methyl)(methyl)amino)cyclohexyl)-3-methoxybenzamide] | < 30 | > 10000 | < 30
+++ (+++: <0.3) | COc1cc(C(=O)NN2CCC(CCN3CCN(c4cnc(C5CCC(=O)NC5=O)cc4F)CC3)CC2)ccc1Nc1ncc2c(n1)N(C(C)C)CC(F)(F)C(=O)N2C (stereo not shown) [Compound 21, 4-((7,7-difluoro-9-isopropyl-5-methyl-6-oxo-6,7,8,9-tetrahydro-5H-pyrimido[4,5-b][1,4]diazepin-2-yl)amino)-N-(4-(2-(4-(6-(2,6-dioxopiperidin-3-yl)-4-fluoropyridin-3-yl)piperazin-1-yl)ethyl)piperidin-1-yl)-3-methoxybenzamide] | < 30 | > 10000 | < 30
+++ (+++: <0.3) | COc1cc(C(=O)N[C@H]2C3CN(CC4CCN(c5ccc(NC6CCC(=O)NC6=O)cc5)CC4)C[C@@H]32)ccc1Nc1ncc2c(n1)N(C(C)C)CC(F)(F)C(=O)N2C (stereo partly drawn) [Compound 22, 4-((7,7-difluoro-9-isopropyl-5-methyl-6-oxo-6,7,8,9-tetrahydro-5H-pyrimido[4,5-b][1,4]diazepin-2-yl)amino)-N-((1R,5S,6s)-3-((1-(4-((2,6-dioxopiperidin-3-yl)amino)phenyl)piperidin-4-yl)methyl)-3-azabicyclo[3.1.0]hexan-6-yl)-3-methoxybenzamide] | < 50 | > 10000 | < 50
++ (++: <0.5) | COc1cc(C(=O)N[C@H]2[C@@H]3CN(CCN4CCN(c5ccc(NC6CCC(=O)NC6=O)cc5)CC4)C[C@@H]32)ccc1Nc1ncc2c(n1)N(C(C)C)CC(F)(F)C(=O)N2C (stereo partly drawn) [Compound 23, 4-((7,7-difluoro-9-isopropyl-5-methyl-6-oxo-6,7,8,9-tetrahydro-5H-pyrimido[4,5-b][1,4]diazepin-2-yl)amino)-N-((1R,5S,6s)-3-(2-(4-(4-((2,6-dioxopiperidin-3-yl)amino)phenyl)piperazin-1-yl)ethyl)-3-azabicyclo[3.1.0]hexan-6-yl)-3-methoxybenzamide] | < 30 | > 10000 | < 50
++ (++: <0.5) | COc1cc(C(=O)N[C@H]2[C@@H]3CN(CCC4CCN(c5ccc(NC6CCC(=O)NC6=O)cc5)CC4)C[C@@H]32)ccc1Nc1ncc2c(n1)N(C(C)C)CC(F)(F)C(=O)N2C (stereo partly drawn) [Compound 24, 4-((7,7-difluoro-9-isopropyl-5-methyl-6-oxo-6,7,8,9-tetrahydro-5H-pyrimido[4,5-b][1,4]diazepin-2-yl)amino)-N-((1R,5S,6s)-3-(2-(1-(4-((2,6-dioxopiperidin-3-yl)amino)phenyl)piperidin-4-yl)ethyl)-3-azabicyclo[3.1.0]hexan-6-yl)-3-methoxybenzamide] | < 50 | > 10000 | < 100
++ (++: <0.5) | COc1cc(C(=O)NN2C[C@@H]3[C@@H](CCN4CCN(c5ccc(NC6CCC(=O)NC6=O)cc5)CC4)[C@@H]3C2)ccc1Nc1ncc2c(n1)N(C(C)C)CC(F)(F)C(=O)N2C (stereo partly drawn) [Compound 25, 4-((7,7-difluoro-9-isopropyl-5-methyl-6-oxo-6,7,8,9-tetrahydro-5H-pyrimido[4,5-b][1,4]diazepin-2-yl)amino)-N-((1R,5S,6s)-6-(2-(4-(4-((2,6-dioxopiperidin-3-yl)amino)phenyl)piperazin-1-yl)ethyl)-3-azabicyclo[3.1.0]hexan-3-yl)-3-methoxybenzamide] | < 30 | > 10000 | < 100
